Test results from patent US20230085307A1, “PYRIDAZINONE COMPOUND AND HERBICIDE” (NISSAN CHEMICAL CORPORATION, priority 2019, published 2023).

Each molecule was assayed on barnyard grass (assay: Test Example 3: herbicidal effect by foliage application, Wagner pot (Table 18, symbol H)). Settings: 320 g/ha.
Format: in vivo, barnyard grass (Echinochloa crus-galli)
How it was run: (§1)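 Plants were sown in alluvial soil held under 0.1–0.5 cm standing water and grown 14 days in a greenhouse at 25–30 °C. An emulsifiable formulation, water-diluted to the set dose, was then sprayed onto the foliage, and effects were scored three weeks later using previously defined criteria.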

SMILES | herbicidal effect on barnyard grass (H)
Cc1nn(C)c(=O)c(-c2c(-c3ccc(C(F)(F)F)cc3)sc3cc(F)c(F)cc23)c1O [5-007] | 4 (Herbicidal rate of 70% or more and less than 90%)

The molecules below were run on Chinese sprangletop (assay: Test Example 3: herbicidal effect by foliage application, Wagner pot (Table 18, symbol D)). Settings: 320 g/ha.
Format: in vivo, chinese sprangletop (Leptochloa chinensis)
How it was run: as §1

SMILES | herbicidal effect on Chinese sprangletop (D)
Cc1nn(C)c(=O)c(-c2c(-c3ccc(C(F)(F)F)cc3)sc3cc(F)c(F)cc23)c1O [5-007] | 1 (Herbicidal rate of 5% or more and less than 20%)

These molecules were tested on rice flat sedge (assay: Test Example 3: herbicidal effect by foliage application, Wagner pot (Table 18, symbol E)). Settings: 320 g/ha.
Format: in vivo, rice flat sedge (Cyperus iria)
How it was run: as §1

SMILES | herbicidal effect on rice flat sedge (E)
Cc1nn(C)c(=O)c(-c2c(-c3ccc(C(F)(F)F)cc3)sc3cc(F)c(F)cc23)c1O [5-007] | 2 (Herbicidal rate of 20% or more and less than 40%)

These molecules were tested on southern crabgrass (assay: Test Example 4: herbicidal effect by soil treatment (Table 19, symbol F)). Settings: amount of applied herbicide 320 g/ha.
Format: in vivo, southern crabgrass (Digitaria ciliaris)
How it was run: (§2)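 Soil-surface application: an emulsion agent diluted with water to the predetermined dose is sprayed uniformly over seeds lying under roughly 1.5 cm of sterilized diluvial soil. Boxes stay in a greenhouse at 25° C. to 30° C. Three weeks later, each species is graded on previously defined criteria.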

SMILES | F: southern crabgrass, herbicidal effect grade
Cc1nn(C)c(=O)c(-c2c(-c3ccc(C(F)(F)F)cc3)sc3cc(F)c(F)cc23)c1O [5-007] | 0 (Herbicidal rate of 5% or less (almost no effect))

Each molecule was assayed on green foxtail (assay: Test Example 4: herbicidal effect by soil treatment (Table 19, symbol G)). Settings: amount of applied herbicide 320 g/ha.
Format: in vivo, green foxtail (Setaria viridis)
How it was run: as §2

SMILES | G: green foxtail, herbicidal effect grade
Cc1nn(C)c(=O)c(-c2c(-c3ccc(C(F)(F)F)cc3)sc3cc(F)c(F)cc23)c1O [5-007] | 3 (Herbicidal rate of 40% or more and less than 70%)

What follows are molecules tested on barnyard grass (assay: Test Example 4: herbicidal effect by soil treatment (Table 19, symbol H)). Settings: amount of applied herbicide 320 g/ha.
Format: in vivo, barnyard grass (Echinochloa crus-galli)
How it was run: as §2

SMILES | H: barnyard grass, herbicidal effect grade
Cc1nn(C)c(=O)c(-c2c(-c3ccc(C(F)(F)F)cc3)sc3cc(F)c(F)cc23)c1O [5-007] | 0 (Herbicidal rate of 5% or less (almost no effect))

These molecules were tested on wild oat (assay: Test Example 4: herbicidal effect by soil treatment (Table 19, symbol I)). Settings: amount of applied herbicide 320 g/ha.
Format: in vivo, wild oat (Avena fatua)
How it was run: as §2

SMILES | I: wild oat, herbicidal effect grade
Cc1nn(C)c(=O)c(-c2c(-c3ccc(C(F)(F)F)cc3)sc3cc(F)c(F)cc23)c1O [5-007] | 0 (Herbicidal rate of 5% or less (almost no effect))

The molecules below were run on blackgrass (assay: Test Example 4: herbicidal effect by soil treatment (Table 19, symbol J)). Settings: amount of applied herbicide 320 g/ha.
Format: in vivo, blackgrass (Alopecurus myosuroides)
How it was run: as §2

SMILES | J: blackgrass, herbicidal effect grade
Cc1nn(C)c(=O)c(-c2c(-c3ccc(C(F)(F)F)cc3)sc3cc(F)c(F)cc23)c1O [5-007] | 0 (Herbicidal rate of 5% or less (almost no effect))

Each molecule was assayed on Italian ryegrass (assay: Test Example 4: herbicidal effect by soil treatment (Table 19, symbol K)). Settings: amount of applied herbicide 320 g/ha.
Format: in vivo, Italian ryegrass (Lolium multiflorum)
How it was run: as §2

SMILES | K: Italian ryegrass, herbicidal effect grade
Cc1nn(C)c(=O)c(-c2c(-c3ccc(C(F)(F)F)cc3)sc3cc(F)c(F)cc23)c1O [5-007] | 0 (Herbicidal rate of 5% or less (almost no effect))

The molecules below were run on windgrass (assay: Test Example 4: herbicidal effect by soil treatment (Table 19, symbol L)). Settings: amount of applied herbicide 320 g/ha.
Format: in vivo, windgrass (Apera spica-venti)
How it was run: as §2

SMILES | L: windgrass, herbicidal effect grade
Cc1nn(C)c(=O)c(-c2c(-c3ccc(C(F)(F)F)cc3)sc3cc(F)c(F)cc23)c1O [5-007] | 0 (Herbicidal rate of 5% or less (almost no effect))

What follows are molecules tested on velvetleaf (assay: Test Example 4: herbicidal effect by soil treatment (Table 19, symbol M)). Settings: amount of applied herbicide 320 g/ha.
Format: in vivo, velvetleaf (Abutilon theophrasti)
How it was run: as §2

SMILES | M: velvetleaf, herbicidal effect grade
Cc1nn(C)c(=O)c(-c2c(-c3ccc(C(F)(F)F)cc3)sc3cc(F)c(F)cc23)c1O [5-007] | 0 (Herbicidal rate of 5% or less (almost no effect))

These molecules were tested on redroot pigweed (assay: Test Example 4: herbicidal effect by soil treatment (Table 19, symbol N)). Settings: amount of applied herbicide 320 g/ha.
Format: in vivo, redroot pigweed (Amaranthus retroflexus)
How it was run: as §2

SMILES | N: redroot pigweed, herbicidal effect grade
Cc1nn(C)c(=O)c(-c2c(-c3ccc(C(F)(F)F)cc3)sc3cc(F)c(F)cc23)c1O [5-007] | 3 (Herbicidal rate of 40% or more and less than 70%)

What follows are molecules tested on lambsquarters (assay: Test Example 4: herbicidal effect by soil treatment (Table 19, symbol O)). Settings: amount of applied herbicide 320 g/ha.
Format: in vivo, lambsquarters (Chenopodium album)
How it was run: as §2

SMILES | O: lambsquarters, herbicidal effect grade
Cc1nn(C)c(=O)c(-c2c(-c3ccc(C(F)(F)F)cc3)sc3cc(F)c(F)cc23)c1O [5-007] | 1 (Herbicidal rate of 5% or more and less than 20%)

These molecules were tested on chickweed (assay: Test Example 4: herbicidal effect by soil treatment (Table 19, symbol P)). Settings: amount of applied herbicide 320 g/ha.
Format: in vivo, common chickweed (Stellaria media)
How it was run: as §2

SMILES | P: chickweed, herbicidal effect grade
Cc1nn(C)c(=O)c(-c2c(-c3ccc(C(F)(F)F)cc3)sc3cc(F)c(F)cc23)c1O [5-007] | 3 (Herbicidal rate of 40% or more and less than 70%)

What follows are molecules tested on persian speedwell (assay: Test Example 4: herbicidal effect by soil treatment (Table 19, symbol R)). Settings: amount of applied herbicide 320 g/ha.
Format: in vivo, Persian speedwell (Veronica persica)
How it was run: as §2

SMILES | R: persian speedwell, herbicidal effect grade
Cc1nn(C)c(=O)c(-c2c(-c3ccc(C(F)(F)F)cc3)sc3cc(F)c(F)cc23)c1O [5-007] | 3 (Herbicidal rate of 40% or more and less than 70%)

What follows are molecules tested on southern crabgrass (assay: Test Example 5: herbicidal effect by foliage application, plastic box (Table 20, symbol F)). Settings: amount of applied herbicide 320 g/ha; foliage application after 14-day growth; evaluated three weeks after application.
Format: in vivo, southern crabgrass (Digitaria ciliaris)
How it was run: (§3)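 Sow seeds spot-wise in sterilized diluvial soil; cover with ~1.5 cm soil. Grow 14 days in greenhouse, 25° C. to 30° C. Spray foliage with emulsion diluted to predetermined amount. Rate effect after 3 weeks.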

SMILES | Herbicidal effect by foliage application, F: southern crabgrass
Cc1nn(C)c(=O)c(-c2c(-c3ccc(C(F)(F)F)cc3)sc3cc(F)c(F)cc23)c1O [5-007] | 5 (Herbicidal rate of 90% or more (almost completely withered))

What follows are molecules tested on green foxtail (assay: Test Example 5: herbicidal effect by foliage application, plastic box (Table 20, symbol G)). Settings: amount of applied herbicide 320 g/ha; foliage application after 14-day growth; evaluated three weeks after application.
Format: in vivo, green foxtail (Setaria viridis)
How it was run: as §3

SMILES | Herbicidal effect by foliage application, G: green foxtail
Cc1nn(C)c(=O)c(-c2c(-c3ccc(C(F)(F)F)cc3)sc3cc(F)c(F)cc23)c1O [5-007] | 4 (Herbicidal rate of 70% or more and less than 90%)

The molecules below were run on barnyard grass (assay: Test Example 5: herbicidal effect by foliage application, plastic box (Table 20, symbol H)). Settings: amount of applied herbicide 320 g/ha; foliage application after 14-day growth; evaluated three weeks after application.
Format: in vivo, barnyard grass (Echinochloa crus-galli)
How it was run: as §3

SMILES | Herbicidal effect by foliage application, H: barnyard grass
Cc1nn(C)c(=O)c(-c2c(-c3ccc(C(F)(F)F)cc3)sc3cc(F)c(F)cc23)c1O [5-007] | 3 (Herbicidal rate of 40% or more and less than 70%)

Each molecule was assayed on wild oat (assay: Test Example 5: herbicidal effect by foliage application, plastic box (Table 20, symbol I)). Settings: amount of applied herbicide 320 g/ha; foliage application after 14-day growth; evaluated three weeks after application.
Format: in vivo, wild oat (Avena fatua)
How it was run: as §3

SMILES | Herbicidal effect by foliage application, I: wild oat
Cc1nn(C)c(=O)c(-c2c(-c3ccc(C(F)(F)F)cc3)sc3cc(F)c(F)cc23)c1O [5-007] | 2 (Herbicidal rate of 20% or more and less than 40%)

These molecules were tested on blackgrass (assay: Test Example 5: herbicidal effect by foliage application, plastic box (Table 20, symbol J)). Settings: amount of applied herbicide 320 g/ha; foliage application after 14-day growth; evaluated three weeks after application.
Format: in vivo, blackgrass (Alopecurus myosuroides)
How it was run: as §3

SMILES | Herbicidal effect by foliage application, J: blackgrass
Cc1nn(C)c(=O)c(-c2c(-c3ccc(C(F)(F)F)cc3)sc3cc(F)c(F)cc23)c1O [5-007] | 0 (Herbicidal rate of 5% or less (almost no effect))

What follows are molecules tested on Italian ryegrass (assay: Test Example 5: herbicidal effect by foliage application, plastic box (Table 20, symbol K)). Settings: amount of applied herbicide 320 g/ha; foliage application after 14-day growth; evaluated three weeks after application.
Format: in vivo, Italian ryegrass (Lolium multiflorum)
How it was run: as §3

SMILES | Herbicidal effect by foliage application, K: Italian ryegrass
Cc1nn(C)c(=O)c(-c2c(-c3ccc(C(F)(F)F)cc3)sc3cc(F)c(F)cc23)c1O [5-007] | 0 (Herbicidal rate of 5% or less (almost no effect))

Each molecule was assayed on windgrass (assay: Test Example 5: herbicidal effect by foliage application, plastic box (Table 20, symbol L)). Settings: amount of applied herbicide 320 g/ha; foliage application after 14-day growth; evaluated three weeks after application.
Format: in vivo, windgrass (Apera spica-venti)
How it was run: as §3

SMILES | Herbicidal effect by foliage application, L: windgrass
Cc1nn(C)c(=O)c(-c2c(-c3ccc(C(F)(F)F)cc3)sc3cc(F)c(F)cc23)c1O [5-007] | 4 (Herbicidal rate of 70% or more and less than 90%)

Each molecule was assayed on velvetleaf (assay: Test Example 5: herbicidal effect by foliage application, plastic box (Table 20, symbol M)). Settings: amount of applied herbicide 320 g/ha; foliage application after 14-day growth; evaluated three weeks after application.
Format: in vivo, velvetleaf (Abutilon theophrasti)
How it was run: as §3

SMILES | Herbicidal effect by foliage application, M: velvetleaf
Cc1nn(C)c(=O)c(-c2c(-c3ccc(C(F)(F)F)cc3)sc3cc(F)c(F)cc23)c1O [5-007] | 3 (Herbicidal rate of 40% or more and less than 70%)

These molecules were tested on redroot pigweed (assay: Test Example 5: herbicidal effect by foliage application, plastic box (Table 20, symbol N)). Settings: amount of applied herbicide 320 g/ha; foliage application after 14-day growth; evaluated three weeks after application.
Format: in vivo, redroot pigweed (Amaranthus retroflexus)
How it was run: as §3

SMILES | Herbicidal effect by foliage application, N: redroot pigweed
Cc1nn(C)c(=O)c(-c2c(-c3ccc(C(F)(F)F)cc3)sc3cc(F)c(F)cc23)c1O [5-007] | 5 (Herbicidal rate of 90% or more (almost completely withered))

These molecules were tested on lambsquarters (assay: Test Example 5: herbicidal effect by foliage application, plastic box (Table 20, symbol O)). Settings: amount of applied herbicide 320 g/ha; foliage application after 14-day growth; evaluated three weeks after application.
Format: in vivo, lambsquarters (Chenopodium album)
How it was run: as §3

SMILES | Herbicidal effect by foliage application, O: lambsquarters
Cc1nn(C)c(=O)c(-c2c(-c3ccc(C(F)(F)F)cc3)sc3cc(F)c(F)cc23)c1O [5-007] | 5 (Herbicidal rate of 90% or more (almost completely withered))

What follows are molecules tested on chickweed (assay: Test Example 5: herbicidal effect by foliage application, plastic box (Table 20, symbol P)). Settings: amount of applied herbicide 320 g/ha; foliage application after 14-day growth; evaluated three weeks after application.
Format: in vivo, common chickweed (Stellaria media)
How it was run: as §3

SMILES | Herbicidal effect by foliage application, P: chickweed
Cc1nn(C)c(=O)c(-c2c(-c3ccc(C(F)(F)F)cc3)sc3cc(F)c(F)cc23)c1O [5-007] | 5 (Herbicidal rate of 90% or more (almost completely withered))

Each molecule was assayed on persian speedwell (assay: Test Example 5: herbicidal effect by foliage application, plastic box (Table 20, symbol R)). Settings: amount of applied herbicide 320 g/ha; foliage application after 14-day growth; evaluated three weeks after application.
Format: in vivo, Persian speedwell (Veronica persica)
How it was run: as §3

SMILES | Herbicidal effect by foliage application, R: persian speedwell
Cc1nn(C)c(=O)c(-c2c(-c3ccc(C(F)(F)F)cc3)sc3cc(F)c(F)cc23)c1O [5-007] | 5 (Herbicidal rate of 90% or more (almost completely withered))
